Read-outs that look alike come from different tables or passages of the source.
Legend:
52-kDa protein = conditions: Biegel and Safe, 1990; cited from earlier work
AHH and EROD induction = test: TCDD antagonism / Ah receptor agonist activity (AHH and EROD induction)
estrogen receptor (ER) = test: Uterine estrogen receptor levels, hydroxyapatite assay (Example 8); format: in vivo, female Sprague-Dawley rats; conditions: run A
Toxicity = conditions: in vivo
uterus [1] = test: Uterine wet weights in mice (summary); format: in vivo; conditions: in comparison to control
estrogen receptor [2] = test: Uterine and hepatic estrogen receptor levels (literature); format: in vivo, rat; conditions: in comparison to control test animals, rats and mice
[3] = system: MCF-7 human breast cancer cells; test: Growth of MCF-7 human breast cancer cells; format: cell-based; conditions: MCDF
uterus [4] = test: Uterine wet weight / uterotrophic effects (literature, summary); format: in vivo, rat; conditions: rats, in comparison to control
female rat uterus = test: Antiestrogenic effect on uterine wet weight, immature female Sprague-Dawley rats (Example 8); format: in vivo; conditions: run A
[5] = system: progesterone receptor (PR); test: Uterine progesterone receptor levels, hydroxyapatite assay (Example 8); format: in vivo, female Sprague-Dawley rats; conditions: run A
EGF receptor = conditions: cited from earlier work
uterus [6] = conditions: cited from earlier work
nuclear ER = test: Nuclear ER levels in MCF-7 cells; format: cell-based, human; conditions: for nuclear ER levels: TCDD (10 nM), MCDF (100 nM)
Description: MCF-7 cells, obtained from American Type Culture Collection (Rockville, Ma.), were maintained at 37° C. in closed Corning T-25, 75 or 150 cm^2 flasks (Corning Glassworks, Corning, N.Y.) and passaged in logarithmic growth phase.
For the 2,3,7,8-TCDD antiestrogenicity studies, cells were treated 24 hours prior to harvesting with various concentrations of 2,3,7,8-TCDD (0.1 nM to 100 nM 2,3,7,8-TCDD). Interactive effects between 2,3,7,8-TCDD and estradiol were conducted using these same concentrations of 2,3,7,8-TCDD and 10 nM estradiol. […]
MCF-7 cells from a single near confluent T-25 flask were incubated at 37° C. for 0.5 hours prior to harvesting with 10 nM 2,4,6,7-[^3H]-estradiol. The medium was then decanted and the cells were rinsed once with Hanks' balanced salt solution containing 1 mM EDTA. The cells were collected by centrifugation, washed gently in 2 ml of TEDG buffer and homogenized in 300 μl of TEDG buffer containing protease inhibitors [soybean trypsin inhibitor 5 mg/ml (Sigma), leupetin 1 mg/ml (Sigma), and phenylmethylsulfonyl fluoride 1 mg/ml (Sigma) by 40 strokes of a Dounce homogenizer. The homogenate was centrifuged at 800×g for 10 minutes. The crude nuclear pellet was resuspended in 300 μl of TEDGK buffer (10 mM Tris-HCl, 1.5 mM EDTA-4Na, 10 mM dithiothreitol, 10% (v/v) glycerol, 0.8 M KCl, pH 8.5 at 4° C.). The nuclear ER levels were then determined as described below.
The nuclear extract previously obtained was incubated with 10 nM [^3 H]-estradiol plus or minus radioinert diethylstilbestrol for 1 hour at 0-4° C., with resuspension by agitation every 15 minutes. The sample was then centrifuged at 180,000×g for 30 minutes, then 200 μl of the supernatant obtained was layered onto linear 1-20% sucrose gradients prepared in TEDGMK buffer. As before, the gradients were centrifuged at 406,000×g for 2.5 hours in a vertical rotor. Following centrifugation, 30 fractions of […] were collected and the radioactivity in each sample was determined.

Ah receptor = test: Binding affinity for the Ah receptor
160-kDa protein = conditions: Biegel and Safe, 1990; cited from earlier work
[7] = system: mammary and uterine tumors; conditions: long term feeding studies; cited from earlier work
uterus [8] = conditions: cited from earlier work; remark: listed apart in the source
estrogen receptor [9] = conditions: cited from earlier work
uterus [10] = conditions: weanling female C57BL/6 mice; cited from earlier work
[11] = system: tissue plasminogen activator; conditions: MCF-7 human breast cancer cells; cited from earlier work
[12] = 150 μmol/kg + E-2 (2 × 10 μg/rat)
[13] = compound alone, 150 μmol/kg (17β-estradiol: 2 × 10 μg/rat)

Structure (SMILES): Cc1cc(Cl)cc2c1oc1cc(Cl)cc(Cl)c12 [MCDF, 6-methyl 1,3,8-trichlorodibenzofuran]
- 17β-estradiol-induced secretion of the 52-kDa protein (52-kDa protein): inhibits
- agonist for Ah receptor mediated response (AHH and EROD induction): poor agonist
- Estrogen Receptor Levels, Cytosolic (estrogen receptor (ER); [12]): 78.9 ± 79.1 fmol/mg protein
- Estrogen Receptor Levels, Nuclear (estrogen receptor (ER); [12]): 43.3 ± 73.4 fmol/mg protein
- Estrogen Receptor Levels, Cytosolic (estrogen receptor (ER); [13]): 55.1 ± 0.9 fmol/mg protein
- Estrogen Receptor Levels, Nuclear (estrogen receptor (ER); [13]): 49.3 ± 10.2 fmol/mg protein
- toxicity (Toxicity): low toxicity
- toxicity of amounts giving antiestrogenic effects (Toxicity): nontoxic
- uterine wet weights (uterus [1]): decreases
- nuclear and cytosolic hepatic and uterine estrogen receptors (estrogen receptor [2]): decreases
- 17β-estradiol-induced growth of MCF-7 cells [3]: inhibits
- uterine wet weights (uterus [4]): decreases
- Uterine Wet Weight (female rat uterus; [12]): 0.194 ± 0.023 % body wt
- Uterine Wet Weight (female rat uterus; [13]): 0.104 ± 0.004 % body wt
- Progesterone Receptor Levels, Cytosolic [5, 12]: 1203 ± 110 fmol/mg protein
- Progesterone Receptor Levels, Nuclear [5, 12]: 435 ± 91 fmol/mg protein
- Progesterone Receptor Levels, Cytosolic [5, 13]: 915 ± 63 fmol/mg protein
- Progesterone Receptor Levels, Nuclear [5, 13]: 312 ± 50 fmol/mg protein
- 17β-estradiol-induced increased EGF receptor binding and mRNA levels (EGF receptor): inhibits
- 17β-estradiol-induced increases in rat uterine wet weight (uterus [6]): active as an antiestrogen
- uterotrophic effects of 17β-estradiol (uterus [6]; rat, in vivo): inhibits
- ERn (nuclear ER; 2,3,7,8-TCDD (10 nM) + MCDF (15 μM)): 147.5(9.6) fmol/mg protein
- ERn (nuclear ER; 2,3,7,8-TCDD (10 nM) + MCDF (50 μM)): 136.0(14.7) fmol/mg protein
- ERn (nuclear ER; 2,3,7,8-TCDD (10 nM) + MCDF (75 μM)): 133.1(10.4) fmol/mg protein
- ERn (nuclear ER; 2,3,7,8-TCDD (10 nM) + MCDF (100 μM)): 123.1(7.1) fmol/mg protein
- ERn (nuclear ER; 2,3,7,8-TCDD (10 nM) + MCDF (150 μM)): 129.3(2.9) fmol/mg protein
- ERn (nuclear ER; 2,3,7,8-TCDD (25 nM) + MCDF (15 μM)): 146.9(9.6) fmol/mg protein
- ERn (nuclear ER; 2,3,7,8-TCDD (25 nM) + MCDF (50 μM)): 85.5(16.5) fmol/mg protein
- ERn (nuclear ER; 2,3,7,8-TCDD (25 nM) + MCDF (75 μM)): 91.3(9.7) fmol/mg protein
- ERn (nuclear ER; 2,3,7,8-TCDD (25 nM) + MCDF (100 μM)): 100.5 (10.4) fmol/mg protein
- ERn (nuclear ER; 2,3,7,8-TCDD (25 nM) + MCDF (150 μM)): 108.1(18.1) fmol/mg protein
- ERn levels in MCF-7 cells (nuclear ER; MCDF): significantly decreased
- ERn (nuclear ER; MCDF alone (15 μM)): 207.5 (6.6) fmol/mg protein
- ERn (nuclear ER; MCDF alone (50 μM)): 171.6 (13.7) fmol/mg protein
- ERn (nuclear ER; MCDF alone (100 μM)): 135.8 (4.5) fmol/mg protein
- ERn (nuclear ER; MCDF alone (150 μM)): 114.2 (7.9) fmol/mg protein
- ERn levels, combined treatment vs either 2,3,7,8-TCDD or MCDF (nuclear ER; MCDF plus 2,3,7,8-TCDD): not significantly different
- combined effects on ERn levels in MCF-7 cells (nuclear ER; MCDF plus 2,3,7,8-TCDD): clearly not additive
- nuclear ER levels (nuclear ER): decrease in nuclear ER levels
- ERn (nuclear ER; alone (75 μM)): 141.8 (13.6) fmol/mg protein
- ERn (nuclear ER; estradiol (10 nM) + 2,3,7,8-TCDD (10 nM) plus MCDF (15 nM)): 133.1 (14.3) fmol/mg protein
- ERn (nuclear ER; estradiol (10 nM) + 2,3,7,8-TCDD (10 nM) plus MCDF (50 μM)): 122.3 (5.5) fmol/mg protein
- ERn (nuclear ER; estradiol (10 nM) + 2,3,7,8-TCDD (10 nM) plus MCDF (100 μM)): 125.5 (9.7) fmol/mg protein
- ERn (nuclear ER; estradiol (10 nM) + 2,3,7,8-TCDD (25 nM) plus MCDF (15 μM)): 132.6 (2.1) fmol/mg protein
- ERn (nuclear ER; estradiol (10 nM) + 2,3,7,8-TCDD (25 nM) plus MCDF (50 μM)): 130.5 (5.3) fmol/mg protein
- ERn (nuclear ER; estradiol (10 nM) + 2,3,7,8-TCDD (25 μM) plus MCDF (100 μM)): 123.8 (8.3) fmol/mg protein
- ERn (nuclear ER; estradiol (10 nM) + MCDF (15 μM)): 113.4 (3.9) fmol/mg protein
- ERn (nuclear ER; estradiol (10 nM) + MCDF (50 μM)): 103.4 (17.6) fmol/mg protein
- ERn (nuclear ER; estradiol (10 nM) + MCDF (100 μM)): 106.4 (7.9) fmol/mg protein
- Ah receptor binding activity (Ah receptor): relatively high
- 17β-estradiol-induced secretion of the 160-kDa protein (160-kDa protein): inhibits

Structure (SMILES): Clc1cc2c(cc1Cl)Oc1cc(Cl)c(Cl)cc1O2 [TCDD, 2,3,7,8-tetrachloridibenzo-p-dioxin]
- spontaneous development of mammary and uterine tumors [7]: significantly decreased
- estrogenic effects of 17β-estradiol on uterine weights (uterus [8]; TCDD with 17β-estradiol): partially blocked
- uterine weights (uterus [8]; female Long Evans rats): decreased
- binding to the estrogen receptor (estrogen receptor [9]): does not bind
- uterine weights (uterus [10]): decreased
- estrogen mediated excretion of tissue plasminogen activator activity [11]: suppressed
- nuclear ER levels (nuclear ER): decrease in nuclear ER levels

— US5516790A, “Synthesis and application of alkyl-substituted dibenzofurans as antitumorigenic agents” (Texas A&M University System Technology Licensing Office, priority 1994, dated 1996)
